From patent US11834450B2, “Compounds having ((3-nitrophenyl)sulfonyl)acetamide as BCL-2 inhibitors” (Eil Therapeutics, Inc., priority 2021, dated 2023)
pEC50, pIC50: −log10 of the molar value.

Legend:
BCL-2 = target: T1, BCL-2 (Homo sapiens, UniProt P10415); test: BCL-2 TR-FRET Assay (primary PPI inhibition); format: binding; details: 60 min incubation; read-out: BCL2 (IC50 code, BCL-2 TR-FRET)
T1 construct: purchased BPS Bioscience #50222

BCL-XL = target: T2, BCL-XL (Homo sapiens, UniProt Q07817); test: BCL-XL TR-FRET Assay (primary PPI inhibition); format: binding; details: 60 min incubation; read-out: BCLxL (IC50 code, BCL-XL TR-FRET)
T2 construct: purchased BPS Bioscience #50223
T2 sequence (Q07817 whole entry): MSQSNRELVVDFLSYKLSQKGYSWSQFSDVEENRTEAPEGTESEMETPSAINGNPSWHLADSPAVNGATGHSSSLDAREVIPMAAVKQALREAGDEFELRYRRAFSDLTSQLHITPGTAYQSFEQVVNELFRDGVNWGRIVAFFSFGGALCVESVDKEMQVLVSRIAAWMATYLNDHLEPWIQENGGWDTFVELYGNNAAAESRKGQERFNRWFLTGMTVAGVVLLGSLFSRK
Procedure, shortened: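 10.5 ng His-tagged BCL-XL incubated 60 min with test compound, BCL-XL peptide ligand (1:80), Tb-labelled anti-His donor and dye-labelled acceptor (each 1:100). Displacement read as TR-FRET, excitation 340 nm, emission 620 and 665 nm, 60 μs delay, 500 μs integration.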

RS4-11 cells = test: Cell viability assay RS4-11 (CellTiter-Glo); format: cell-based; details: Homo sapiens, 72 h; RS4-11 cells, 3 days, CellTiter-Glo; read-out: RS4-11 (CC50 code)
Procedure, shortened: (§1)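 Cells were seeded at 2000/well (HEK293, in DMEM, pre-incubated a day) or 4000/well (other lines, in RPMI-1640). Serially diluted compound was added and plates incubated 3 days at 37 °C, with viability read by CellTiter-Glo luminescence.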

MOLT-4 cells = test: Cell viability assay MOLT-4 (CellTiter-Glo); format: cell-based; details: Homo sapiens, 72 h; MOLT-4 cells, 3 days, CellTiter-Glo; read-out: MOLT-4 (CC50 code)
Procedure, shortened: as §1

[1] = Cell viability assay HEK293 (CellTiter-Glo); format: cell-based; details: human, HEK293 cells, read-out: HEK293 (CC50 code)
Procedure, shortened: as §1

[2] = tested on: caspase-3 and -7 activities in RS4-11 cells; test: Cas-3/7 activation (Caspase-Glo 3/7) in RS4-11 cells; format: cell-based; details: Homo sapiens, 3.5 h at 37° C. and 30 min at r.t., read-out: Cas-3/7 (EC50 code)
Procedure, shortened: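 RS4-11 cells were exposed to graded compound concentrations for 3.5 h at 37° C/5% CO2, then 30 min at room temperature. Caspase-3/7 activity was measured by luminescence after 30 min with a DEVD luminogenic substrate reagent.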

T1 sequence (P10415 whole entry): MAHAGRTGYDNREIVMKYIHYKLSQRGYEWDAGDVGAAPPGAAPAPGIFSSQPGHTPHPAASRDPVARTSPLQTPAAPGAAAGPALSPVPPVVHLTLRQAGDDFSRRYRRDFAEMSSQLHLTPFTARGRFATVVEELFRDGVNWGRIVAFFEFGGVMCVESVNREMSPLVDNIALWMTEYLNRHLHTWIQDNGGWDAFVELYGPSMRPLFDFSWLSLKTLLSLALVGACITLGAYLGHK

SMILES | pIC50 (BCL-2) | pIC50 (BCL-XL) | CC50 (RS4-11 cells) | CC50 (MOLT-4 cells) | CC50 at 3 days [1] | pEC50 [2]
O=C(NS(=O)(=O)c1ccc(NCC2CCOCC2)c([N+](=O)[O-])c1)c1ccc(N2CCC(CN3C(=O)C4(CCNCC4)C3c3ccc(Cl)cc3)CC2)cc1Oc1cnc2[nH]ccc2c1 (stereo not drawn) [Compound 56, 4-[4-[[1-(4-chlorophenyl)-3-oxo-2,7-diazaspiro[3.5]nonan-2-yl]methyl]-1-piperidyl]-N-[3-nitro-4-(tetrahydropyran-4-ylmethylamino)phenyl]sulfonyl-2-(1H-pyrrolo[2,3-b]pyridin-5-yloxy)benzamide] | 7.30 to 8.00 | 5.40 to 5.70 | > 200 nM | > 10000 nM | > 25000 nM | < 6.60
CC(C)C(=O)N1Cc2cc(Cl)ccc2C[C@H]1CN1CCN(c2ccc(C(=O)NS(=O)(=O)c3ccc(NCC4CCOCC4)c([N+](=O)[O-])c3)c(Oc3cnc4[nH]ccc4c3)c2)CC1 [Compound 57, 4-[4-[[(3S)-7-chloro-2-(2-methylpropanoyl)-3,4-dihydro-1H-isoquinolin-3-yl]methyl]piperazin-1-yl]-N-[3-nitro-4-(tetrahydropyran-4-ylmethylamino)phenyl]sulfonyl-2-(1H-pyrrolo[2,3-b]pyridin-5-yloxy)benzamide] | < 7.30 | < 5.40 | > 200 nM | 2000 to 10000 nM | 10000 to 25000 nM | < 6.60
CC(C)C(=O)N1C[C@@H](CN2CCN(c3ccc(C(=O)NS(=O)(=O)c4ccc(NCC5CCOCC5)c([N+](=O)[O-])c4)c(Oc4cnc5[nH]ccc5c4)c3)CC2)[C@H](c2ccc(Cl)cc2)C1 [Compound 58, 4-[4-[[(3R,4R)-4-(4-chlorophenyl)-1-(2-methylpropanoyl)pyrrolidin-3-yl]methyl]piperazin-1-yl]-N-[3-nitro-4-(tetrahydropyran-4-ylmethylamino)phenyl]sulfonyl-2-(1H-pyrrolo[2,3-b]pyridin-5-yloxy)benzamide] | 7.30 to 8.00 | < 5.40 | > 200 nM | 2000 to 10000 nM | > 25000 nM | < 6.60
O=C(NS(=O)(=O)c1ccc(NCC2CCOCC2)c([N+](=O)[O-])c1)c1ccc(N2CCN(C[C@H]3Cc4ccccc4CN3C(=O)c3ccsc3)CC2)cc1Oc1cnc2[nH]ccc2c1 [Compound 59, N-[3-nitro-4-(tetrahydropyran-4-ylmethylamino)phenyl]sulfonyl-2-(1H-pyrrolo[2,3-b]pyridin-5-yloxy)-4-[4-[[(3R)-2-(thiophene-3-carbonyl)-3,4-dihydro-1H-isoquinolin-3-yl]methyl]piperazin-1-yl]benzamide] | 7.30 to 8.00 | 5.40 to 5.70 | > 200 nM | 2000 to 10000 nM | > 25000 nM | < 6.60
COCCNc1ccc(S(=O)(=O)NC(=O)c2ccc(N3CCC(CN4CCCCC4c4ccc(Cl)cc4)CC3)cc2Oc2cnc3[nH]ccc3c2)cc1[N+](=O)[O-] (stereo not drawn) [Compound 61, 4-[4-[[2-(4-chlorophenyl)-1-piperidyl]methyl]-1-piperidyl]-N-[4-(2-methoxyethylamino)-3-nitro-phenyl]sulfonyl-2-(1H-pyrrolo[2,3-b]pyridin-5-yloxy)benzamide] | < 7.30 | ≥ 5.70 | 100 to 200 nM | 2000 to 10000 nM | > 25000 nM | < 6.60
O=C(NS(=O)(=O)c1ccc(NC2CCOC2)c([N+](=O)[O-])c1)c1ccc(N2CCC(CN3CCCCC3c3ccc(Cl)cc3)CC2)cc1Oc1cnc2[nH]ccc2c1 (stereo not drawn) [Compound 63, 4-[4-[[2-(4-chlorophenyl)-1-piperidyl]methyl]-1-piperidyl]-N-[3-nitro-4-(tetrahydrofuran-3-ylamino)phenyl]sulfonyl-2-(1H-pyrrolo[2,3-b]pyridin-5-yloxy)benzamide] | < 7.30 | 5.40 to 5.70 | > 200 nM | 2000 to 10000 nM | > 25000 nM | < 6.60
CN1C(=O)CC[C@H](CN2CCN(c3ccc(C(=O)NS(=O)(=O)c4ccc(NCC5CCOCC5)c([N+](=O)[O-])c4)c(Oc4cnc5[nH]ccc5c4)c3)CC2)[C@H]1c1ccc(Cl)cc1 [Compound 72, 4-[4-[[(2S,3R)-2-(4-chlorophenyl)-1-methyl-6-oxo-3-piperidyl]methyl]piperazin-1-yl]-N-[3-nitro-4-(tetrahydropyran-4-ylmethylamino)phenyl]sulfonyl-2-(1H-pyrrolo[2,3-b]pyridin-5-yloxy)benzamide] | < 7.30 | ≥ 5.70 | > 200 nM | > 10000 nM | > 25000 nM | < 6.60
CC1=C(C)C[C@H](c2ccc(Cl)cc2)[C@@H](CN2CCN(c3ccc(C(=O)NS(=O)(=O)c4ccc(NCC5CCOCC5)c([N+](=O)[O-])c4)c(Oc4cnc5[nH]ccc5c4)c3)CC2)C1 [Compound 75, 4-[4-[[(1S,6S)-6-(4-chlorophenyl)-3,4-dimethyl-cyclohex-3-en-1-yl]methyl]piperazin-1-yl]-N-[3-nitro-4-(tetrahydropyran-4-ylmethylamino)phenyl]sulfonyl-2-(1H-pyrrolo[2,3-b]pyridin-5-yloxy)benzamide] | < 7.30 | ≥ 5.70 | > 200 nM | 2000 to 10000 nM | > 25000 nM | < 6.60
O=C(NS(=O)(=O)c1ccc(NCC2CCOCC2)c([N+](=O)[O-])c1)c1ccc(N2CCN(C[C@@H]3Cc4ccccc4CN3C(=O)C3CCNC3)CC2)cc1Oc1cnc2[nH]ccc2c1 (stereo partly drawn) [Compound 78, N-[3-nitro-4-(tetrahydropyran-4-ylmethylamino)phenyl]sulfonyl-4-[4-[[(3S)-2-(pyrrolidine-3-carbonyl)-3,4-dihydro-1H-isoquinolin-3-yl]methyl]piperazin-1-yl]-2-(1H-pyrrolo[2,3-b]pyridin-5-yloxy)benzamide] | 8.00 to 8.30 | 5.40 to 5.70 | > 200 nM | > 10000 nM | > 25000 nM | < 6.60
O=C(NS(=O)(=O)c1ccc(NC2CCS(=O)(=O)CC2)c([N+](=O)[O-])c1)c1ccc(N2CCC(CN3CCCCC3c3ccc(Cl)cc3)CC2)cc1Oc1cnc2[nH]ccc2c1 (stereo not drawn) [Compound 79, 4-[4-[[2-(4-chlorophenyl)-1-piperidyl]methyl]-1-piperidyl]-N-[4-[(1,1-dioxothian-4-yl)amino]-3-nitro-phenyl]sulfonyl-2-(1H-pyrrolo[2,3-b]pyridin-5-yloxy)benzamide] | < 7.30 | < 5.40 | > 200 nM | 2000 to 10000 nM | > 25000 nM | < 6.60
O=C(NS(=O)(=O)c1ccc(NCC2CCOCC2)c([N+](=O)[O-])c1)c1ccc(N2CCN(CC34CC(O)CCC3(c3ccc(Cl)cc3)C4)CC2)cc1Oc1cnc2[nH]ccc2c1 (stereo not drawn) [Compound 80, 4-[4-[[6-(4-chlorophenyl)-3-hydroxy-norcaran-1-yl]methyl]piperazin-1-yl]-N-[3-nitro-4-(tetrahydropyran-4-ylmethylamino)phenyl]sulfonyl-2-(1H-pyrrolo[2,3-b]pyridin-5-yloxy)benzamide] | < 7.30 | ≥ 5.70 | > 200 nM | > 10000 nM | 10000 to 25000 nM | < 6.60
